Experimental data as given in US10597388B2, “Pyridazinone herbicides” (FMC CORPORATION, priority 2014, dated 2020).

Columns and labels:
Type in all cases: in vivo
[1] = tested on: foxtail, green (green foxtail, Setaria viridis); assay: Test E greenhouse herbicide test, pre- and postemergence; conditions: Preemergence
In short: (§1)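 Greenhouse pots; preemergence on silt loam, postemergence on plants 1- to 4-leaf (2 to 18 cm) grown in peat, vermiculite and nutrient medium. Test chemicals formulated in non-phytotoxic solvent with surfactant. Ratings taken after 14 to 21 d.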

[2] = tested on: foxtail, giant (giant foxtail, Setaria faberii); assay: as above; conditions: Preemergence
In short: as §1

[3] = tested on: corn (Zea mays); assay: as above
In short: as §1

[4] = tested on: kochia (Kochia scoparia); assay: as above
In short: as §1

[5] = tested on: johnsongrass (Sorghum halepense); assay: as above; conditions: Preemergence
In short: as §1

[6] = tested on: velvetleaf (Abutilon theophrasti); assay: as above; conditions: Preemergence
In short: as §1

[7] = tested on: lambsquarters (Chenopodium album); assay: as above; conditions: Preemergence
In short: as §1

[8] = tested on: pigweed, palmer (palmer pigweed, Amaranthus palmeri); assay: as above
In short: as §1

[9] = tested on: dayflower (Virginia (VA) dayflower, Commelina virginica); assay: as above
In short: as §1

[10] = tested on: sandbur (southem sandbur, Cenchrus echinatus); assay: as above
In short: as §1

[11] = tested on: soybean (Glycine max); assay: as above
In short: as §1

[12] = tested on: crabgrass, Brazilian (Brazilian crabgrass, Digitaria horizontalis); assay: as above
In short: as §1

[13] = tested on: crabgrass, large (large crabgrass, Digitaria sanguinalis); assay: as above; conditions: Preemergence
In short: as §1

[14] = tested on: panicum, fall (fall panicum, Panicum dichotomiflorum); assay: as above
In short: as §1

[15] = tested on: nutsedge, yellow (yellow nutsedge, Cyperus esculentus); assay: as above; conditions: Preemergence
In short: as §1

[16] = tested on: waterhemp_RES1 (ALS & Triazine resistant common waterhemp, Amaranthus rudis); assay: Test E greenhouse herbicide test, postemergence
In short: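 Seedlings were raised in pots of peat moss and vermiculite medium with starter nutrients until they reached the 1- to 4-leaf stage. They were then treated postemergence and held in a greenhouse for 14–21 d. Finally, response was scored visually on a 0–100 control scale.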

[17] = 62 g ai/ha, scale 0 to 100 (0 no effect, 100 complete control)
[18] = 31 g ai/ha, scale 0 to 100, 0 no effect, 100 complete control
[19] = 125 g ai/ha, visual, scale 0 no effect to 100 complete control
[20] = 250 g ai/ha, visual, scale 0 no effect to 100 complete control
[21] = 62 g ai/ha, Postemergence, scale 0 to 100 (0 no effect, 100 complete control)
[22] = 62 g ai/ha, Preemergence, scale 0 to 100 (0 no effect, 100 complete control)
[23] = 125 g ai/ha, Postemergence, scale 0 to 100 (0 no effect, 100 complete control)
[24] = 250 g ai/ha, Postemergence, scale 0 to 100 (0 no effect, 100 complete control)
[25] = Postemergence, 31 g ai/ha, visual, scale 0 no effect to 100 complete control
[26] = Preemergence, 31 g ai/ha, scale 0 to 100, 0 no effect, 100 complete control
[27] = Preemergence, 125 g ai/ha, visual, scale 0 no effect to 100 complete control
[28] = Preemergence, 250 g ai/ha, visual, scale 0 no effect to 100 complete control
[29] = 125 g ai/ha, scale 0 to 100 (0 no effect, 100 complete control)
[30] = 125 g ai/ha, Preemergence, scale 0 to 100 (0 no effect, 100 complete control)

With `Cc1nn(C)c(=O)c(-c2ccc(F)c3ccccc23)c1O` [Compound 41] the “Plant response rating, Foxtail, Green” value [1, 17] was 25, the “Plant response rating, Foxtail, Green” value [1, 18] was 20 and the “Plant response rating, Foxtail, Green” value [1, 19] was 50. For the same molecule, the “Plant response rating, Foxtail, Green” value [1, 20] was 75, the “Plant response rating, Foxtail, Giant” value [2, 17] was 65 and the “Plant response rating, Foxtail, Giant” value [2, 18] was 30. The “Plant response rating, Foxtail, Giant” value [2, 19] was 70, the “Plant response rating, Foxtail, Giant” value [2, 20] was 90 and the “Plant response rating, Corn” value [3, 21] was 0. The “Plant response rating, Corn” value [3, 22] was 0, the “Plant response rating, Corn” value [3, 23] was 0 and the “Plant response rating, Corn” value [3, 24] was 5. For the same molecule, the “Plant response rating, Corn” value [3, 25] was 0, the “Plant response rating, Corn” value [3, 26] was 0 and the “Plant response rating, Corn” value [3, 27] was 0. The “Plant response rating, Corn” value [3, 28] was 25, the “Plant response rating, Kochia” value [4, 21] was 95 and the “Plant response rating, Kochia” value [4, 22] was 90. The “Plant response rating, Kochia” value [4, 23] was 95, the “Plant response rating, Kochia” value [4, 24] was 95 and the “Plant response rating, Kochia” value [4, 25] was 90. The “Plant response rating, Kochia” value [4, 26] was 90, the “Plant response rating, Kochia” value [4, 27] was 100 and the “Plant response rating, Kochia” value [4, 28] was 100. The “Plant response rating, Johnsongrass” value [5, 17] was 0, the “Plant response rating, Johnsongrass” value [5, 18] was 0 and the “Plant response rating, Johnsongrass” value [5, 19] was 0. For the same molecule, the “Plant response rating, Johnsongrass” value [5, 20] was 25, the “Plant response rating, Velvetleaf” value [6, 17] was 85 and the “Plant response rating, Velvetleaf” value [6, 29] was 95. For the same molecule, the “Plant response rating, Velvetleaf” value [6, 18] was 20, the “Plant response rating, Velvetleaf” value [6, 20] was 100 and the “Plant response rating, Lambsquarters” value [7, 17] was 100. For the same molecule, the “Plant response rating, Lambsquarters” value [7, 18] was 35, the “Plant response rating, Lambsquarters” value [7, 19] was 100 and the “Plant response rating, Lambsquarters” value [7, 20] was 100. For the same molecule, the “Plant response rating, Pigweed, Palmer” value [8, 21] was 60, the “Plant response rating, Pigweed, Palmer” value [8, 22] was 85 and the “Plant response rating, Pigweed, Palmer” value [8, 23] was 90. The “Plant response rating, Pigweed, Palmer” value [8, 30] was 75, the “Plant response rating, Pigweed, Palmer” value [8, 24] was 95 and the “Plant response rating, Pigweed, Palmer” value [8, 25] was 50. For the same molecule, the “Plant response rating, Pigweed, Palmer” value [8, 26] was 15, the “Plant response rating, Pigweed, Palmer” value [8, 28] was 85 and the “Plant response rating, Dayflower, VA” value [9, 21] was 40. The “Plant response rating, Dayflower, VA” value [9, 22] was 40, the “Plant response rating, Dayflower, VA” value [9, 23] was 85 and the “Plant response rating, Dayflower, VA” value [9, 24] was 90. The “Plant response rating, Dayflower, VA” value [9, 25] was 50, the “Plant response rating, Dayflower, VA” value [9, 26] was 15 and the “Plant response rating, Dayflower, VA” value [9, 27] was 70. For the same molecule, the “Plant response rating, Dayflower, VA” value [9, 28] was 80, the “Plant response rating, Sandbur” value [10, 21] was 50 and the “Plant response rating, Sandbur” value [10, 22] was 70. The “Plant response rating, Sandbur” value [10, 23] was 70, the “Plant response rating, Sandbur” value [10, 30] was 75 and the “Plant response rating, Sandbur” value [10, 24] was 75. The “Plant response rating, Sandbur” value [10, 25] was 60, the “Plant response rating, Sandbur” value [10, 26] was 50 and the “Plant response rating, Sandbur” value [10, 28] was 80. For the same molecule, the “Plant response rating, Soybean” value [11, 21] was 40, the “Plant response rating, Soybean” value [11, 22] was 35 and the “Plant response rating, Soybean” value [11, 23] was 60. The “Plant response rating, Soybean” value [11, 30] was 20, the “Plant response rating, Soybean” value [11, 24] was 75 and the “Plant response rating, Soybean” value [11, 25] was 30. The “Plant response rating, Soybean” value [11, 26] was 0, the “Plant response rating, Soybean” value [11, 28] was 65 and the “Plant response rating, Crabgrass, Brazil” value [12, 21] was 20. For the same molecule, the “Plant response rating, Crabgrass, Brazil” value [12, 22] was 65, the “Plant response rating, Crabgrass, Brazil” value [12, 23] was 30 and the “Plant response rating, Crabgrass, Brazil” value [12, 24] was 50. For the same molecule, the “Plant response rating, Crabgrass, Brazil” value [12, 25] was 10, the “Plant response rating, Crabgrass, Brazil” value [12, 26] was 80 and the “Plant response rating, Crabgrass, Brazil” value [12, 27] was 100. The “Plant response rating, Crabgrass, Brazil” value [12, 28] was 80, the “Plant response rating, Crabgrass, Large” value [13, 17] was 70 and the “Plant response rating, Crabgrass, Large” value [13, 18] was 65. For the same molecule, the “Plant response rating, Crabgrass, Large” value [13, 19] was 80, the “Plant response rating, Crabgrass, Large” value [13, 20] was 60 and the “Plant response rating, Panicum, Fall” value [14, 21] was 25. For the same molecule, the “Plant response rating, Panicum, Fall” value [14, 22] was 90, the “Plant response rating, Panicum, Fall” value [14, 23] was 30 and the “Plant response rating, Panicum, Fall” value [14, 30] was 95. For the same molecule, the “Plant response rating, Panicum, Fall” value [14, 24] was 50, the “Plant response rating, Panicum, Fall” value [14, 25] was 15 and the “Plant response rating, Panicum, Fall” value [14, 26] was 80. The “Plant response rating, Panicum, Fall” value [14, 28] was 98, the “Plant response rating, Nutsedge, Yellow” value [15, 17] was 65 and the “Plant response rating, Nutsedge, Yellow” value [15, 29] was 75. The “Plant response rating, Nutsedge, Yellow” value [15, 18] was 25, the “Plant response rating, Nutsedge, Yellow” value [15, 20] was 85 and the “Plant response rating, Waterhemp_RES1” value ([16]; 31 g ai/ha, visual, scale 0 no effect to 100 complete control) was 75. For the same molecule, the “Plant response rating, Waterhemp_RES1” value [16, 17] was 75, the “Plant response rating, Waterhemp_RES1” value [16, 29] was 90 and the “Plant response rating, Waterhemp_RES1” value ([16]; 250 g ai/ha, scale 0 to 100 (0 no effect, 100 complete control)) was 95.
